Assay results: ChEMBL document CHEMBL1201862, “PubChem BioAssay data set” (2004)
The source made the active and inactive calls.

Tests used:
Beta-galactosidase = Beta-galactosidase (Escherichia coli, UniProt Q8VNN2); assay: Dose response counterscreen for EBI2 assay utilizing the enzyme, b-galactosidase.; type: functional
[1] = target: T1, Methionyl-tRNA synthetase, putative (Trypanosoma brucei brucei, UniProt Q38C91); type: functional, Trypanosoma brucei brucei strain 927/4 GUTat10.1
T1 sequence (Q38C91 whole entry): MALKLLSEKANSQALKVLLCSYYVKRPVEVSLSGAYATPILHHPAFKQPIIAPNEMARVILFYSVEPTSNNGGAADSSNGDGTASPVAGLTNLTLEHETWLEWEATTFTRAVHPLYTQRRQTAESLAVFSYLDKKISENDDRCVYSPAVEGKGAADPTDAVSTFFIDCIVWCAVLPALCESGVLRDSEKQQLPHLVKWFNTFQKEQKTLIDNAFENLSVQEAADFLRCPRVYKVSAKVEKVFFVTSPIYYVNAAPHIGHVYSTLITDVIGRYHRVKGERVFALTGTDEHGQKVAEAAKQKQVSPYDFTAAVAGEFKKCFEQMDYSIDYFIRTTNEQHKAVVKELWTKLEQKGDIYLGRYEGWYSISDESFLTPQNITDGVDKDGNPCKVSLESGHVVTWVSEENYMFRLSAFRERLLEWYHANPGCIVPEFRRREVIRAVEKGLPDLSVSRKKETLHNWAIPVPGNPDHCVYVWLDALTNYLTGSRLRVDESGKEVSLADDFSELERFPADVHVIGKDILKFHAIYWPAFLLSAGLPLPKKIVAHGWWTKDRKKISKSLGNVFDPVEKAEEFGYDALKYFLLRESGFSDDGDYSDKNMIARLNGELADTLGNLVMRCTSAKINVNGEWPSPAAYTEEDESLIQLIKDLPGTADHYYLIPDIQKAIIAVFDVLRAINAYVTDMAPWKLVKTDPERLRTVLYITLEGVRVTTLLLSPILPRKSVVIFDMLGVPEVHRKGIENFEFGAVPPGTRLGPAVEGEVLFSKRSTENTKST

[2] = Counterscreen for inhibitors of Trypanosoma brucei methionyl tRNA synthetase (MetRS): Luminescence-based cell-based high throughput dose response assay to identify compounds that are cytotoxic to Jurkat human T lymphocyte cells.; type: functional
[3] = target: T1, Methionyl-tRNA synthetase, putative; type: functional, Trypanosoma brucei brucei strain 927/4 GUTat10.1; remark: listed apart in the source
cells [4] = type: functional, cell-based
cells [5] = type: functional, cell-based; remark: listed apart in the source
[6] = target: ADP-ribosylation factor GTPase-activating protein 1 (Rattus norvegicus, UniProt Q62848); assay: Fluorescence polarization-based biochemical high throughput dose response screening assay to identify inhibitors of ADP-ribosylation factor GTPase activating protein 1 (ARFGAP1).; type: functional
ADP-ribosylation factor GTPase-activating protein 1, sequence (Q62848 whole entry, the tested form may be a part): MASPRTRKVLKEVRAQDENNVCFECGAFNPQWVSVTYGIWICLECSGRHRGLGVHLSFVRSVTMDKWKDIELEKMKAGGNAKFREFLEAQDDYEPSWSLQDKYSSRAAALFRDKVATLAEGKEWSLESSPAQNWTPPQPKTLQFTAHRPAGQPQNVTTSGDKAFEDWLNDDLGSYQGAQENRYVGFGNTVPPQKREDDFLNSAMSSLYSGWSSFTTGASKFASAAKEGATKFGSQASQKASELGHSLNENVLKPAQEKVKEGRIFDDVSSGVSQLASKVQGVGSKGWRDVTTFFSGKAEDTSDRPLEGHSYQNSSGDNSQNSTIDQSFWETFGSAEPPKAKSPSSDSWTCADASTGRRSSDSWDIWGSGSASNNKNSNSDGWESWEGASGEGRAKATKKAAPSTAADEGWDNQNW

[7] = target: Arf-GAP with SH3 domain, ANK repeat and PH domain-containing protein 1 (Homo sapiens, UniProt Q9ULH1); type: functional;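 further: biochemical fluorescence polarization dose–response screen measuring inhibition of ASAP1; ASAP1 GAP domain stimulating GTP hydrolysis by truncated human ARF1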
Arf-GAP with SH3 domain, ANK repeat and PH domain-containing protein 1, sequence (Q9ULH1 whole entry, the tested form may be a part): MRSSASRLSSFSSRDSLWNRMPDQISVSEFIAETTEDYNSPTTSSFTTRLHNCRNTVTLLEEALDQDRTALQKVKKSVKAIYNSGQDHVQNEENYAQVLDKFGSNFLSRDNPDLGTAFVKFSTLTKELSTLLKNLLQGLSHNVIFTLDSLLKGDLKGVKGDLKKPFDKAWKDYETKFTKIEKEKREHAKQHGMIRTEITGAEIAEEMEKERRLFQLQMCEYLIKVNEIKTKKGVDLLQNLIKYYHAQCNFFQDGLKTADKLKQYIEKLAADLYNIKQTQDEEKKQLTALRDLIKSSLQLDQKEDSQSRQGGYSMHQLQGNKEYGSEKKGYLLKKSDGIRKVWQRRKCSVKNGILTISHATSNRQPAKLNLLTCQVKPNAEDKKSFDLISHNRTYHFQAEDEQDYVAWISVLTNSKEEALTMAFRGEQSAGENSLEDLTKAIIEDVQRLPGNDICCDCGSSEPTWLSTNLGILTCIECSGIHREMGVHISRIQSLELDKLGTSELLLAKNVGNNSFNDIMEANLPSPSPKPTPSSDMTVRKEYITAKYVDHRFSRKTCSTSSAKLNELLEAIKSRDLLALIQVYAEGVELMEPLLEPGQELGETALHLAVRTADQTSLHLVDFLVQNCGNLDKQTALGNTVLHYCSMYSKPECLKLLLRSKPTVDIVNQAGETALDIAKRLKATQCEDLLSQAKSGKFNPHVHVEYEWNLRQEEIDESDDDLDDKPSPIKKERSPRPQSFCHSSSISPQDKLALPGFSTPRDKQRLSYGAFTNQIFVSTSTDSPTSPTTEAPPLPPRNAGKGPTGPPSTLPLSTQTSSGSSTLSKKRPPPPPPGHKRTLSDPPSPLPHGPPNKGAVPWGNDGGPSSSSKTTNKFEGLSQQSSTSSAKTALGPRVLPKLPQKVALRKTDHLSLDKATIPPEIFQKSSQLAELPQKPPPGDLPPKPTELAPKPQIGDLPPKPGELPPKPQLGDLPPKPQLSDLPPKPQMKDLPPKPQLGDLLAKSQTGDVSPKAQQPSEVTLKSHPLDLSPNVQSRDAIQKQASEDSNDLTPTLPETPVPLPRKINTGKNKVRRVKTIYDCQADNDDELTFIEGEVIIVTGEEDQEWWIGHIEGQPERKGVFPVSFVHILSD

[8] = target: T2, Microphthalmia-associated transcription factor (Homo sapiens, UniProt O75030); assay: TRPM1 promoter luciferase signal decrease, dose response, MITF inhibitor project, cell-based, SK-MEL-5, cherry-picked, set 3 (AID 493073); type: functional
T2 sequence (O75030 whole entry): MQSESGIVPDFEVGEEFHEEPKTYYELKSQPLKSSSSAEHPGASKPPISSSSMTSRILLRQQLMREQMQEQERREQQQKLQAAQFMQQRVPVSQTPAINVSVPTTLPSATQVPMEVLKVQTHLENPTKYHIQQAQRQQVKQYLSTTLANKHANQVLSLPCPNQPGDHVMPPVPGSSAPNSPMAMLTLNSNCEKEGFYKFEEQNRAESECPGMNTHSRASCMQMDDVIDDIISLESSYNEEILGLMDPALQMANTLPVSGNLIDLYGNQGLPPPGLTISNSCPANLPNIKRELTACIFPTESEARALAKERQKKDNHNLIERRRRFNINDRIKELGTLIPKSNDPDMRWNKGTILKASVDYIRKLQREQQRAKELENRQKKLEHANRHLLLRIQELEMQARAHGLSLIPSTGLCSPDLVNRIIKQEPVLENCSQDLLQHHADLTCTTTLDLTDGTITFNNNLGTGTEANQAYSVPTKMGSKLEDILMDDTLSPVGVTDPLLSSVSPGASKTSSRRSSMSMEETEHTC

[9] = target: SWI/SNF-related matrix-associated actin-dependent regulator of chromatin subfamily A member 2 (Homo sapiens, UniProt P51531); assay: Luminescence-based cell-based high throughput dose response assay to identify activators of the function of SWI/SNF related, matrix associated, actin dependent regulator of chromatin, subfamily a, member 2 (SMARCA2, BRM).; type: functional
SWI/SNF-related matrix-associated actin-dependent regulator of chromatin subfamily A member 2, sequence (P51531 whole entry): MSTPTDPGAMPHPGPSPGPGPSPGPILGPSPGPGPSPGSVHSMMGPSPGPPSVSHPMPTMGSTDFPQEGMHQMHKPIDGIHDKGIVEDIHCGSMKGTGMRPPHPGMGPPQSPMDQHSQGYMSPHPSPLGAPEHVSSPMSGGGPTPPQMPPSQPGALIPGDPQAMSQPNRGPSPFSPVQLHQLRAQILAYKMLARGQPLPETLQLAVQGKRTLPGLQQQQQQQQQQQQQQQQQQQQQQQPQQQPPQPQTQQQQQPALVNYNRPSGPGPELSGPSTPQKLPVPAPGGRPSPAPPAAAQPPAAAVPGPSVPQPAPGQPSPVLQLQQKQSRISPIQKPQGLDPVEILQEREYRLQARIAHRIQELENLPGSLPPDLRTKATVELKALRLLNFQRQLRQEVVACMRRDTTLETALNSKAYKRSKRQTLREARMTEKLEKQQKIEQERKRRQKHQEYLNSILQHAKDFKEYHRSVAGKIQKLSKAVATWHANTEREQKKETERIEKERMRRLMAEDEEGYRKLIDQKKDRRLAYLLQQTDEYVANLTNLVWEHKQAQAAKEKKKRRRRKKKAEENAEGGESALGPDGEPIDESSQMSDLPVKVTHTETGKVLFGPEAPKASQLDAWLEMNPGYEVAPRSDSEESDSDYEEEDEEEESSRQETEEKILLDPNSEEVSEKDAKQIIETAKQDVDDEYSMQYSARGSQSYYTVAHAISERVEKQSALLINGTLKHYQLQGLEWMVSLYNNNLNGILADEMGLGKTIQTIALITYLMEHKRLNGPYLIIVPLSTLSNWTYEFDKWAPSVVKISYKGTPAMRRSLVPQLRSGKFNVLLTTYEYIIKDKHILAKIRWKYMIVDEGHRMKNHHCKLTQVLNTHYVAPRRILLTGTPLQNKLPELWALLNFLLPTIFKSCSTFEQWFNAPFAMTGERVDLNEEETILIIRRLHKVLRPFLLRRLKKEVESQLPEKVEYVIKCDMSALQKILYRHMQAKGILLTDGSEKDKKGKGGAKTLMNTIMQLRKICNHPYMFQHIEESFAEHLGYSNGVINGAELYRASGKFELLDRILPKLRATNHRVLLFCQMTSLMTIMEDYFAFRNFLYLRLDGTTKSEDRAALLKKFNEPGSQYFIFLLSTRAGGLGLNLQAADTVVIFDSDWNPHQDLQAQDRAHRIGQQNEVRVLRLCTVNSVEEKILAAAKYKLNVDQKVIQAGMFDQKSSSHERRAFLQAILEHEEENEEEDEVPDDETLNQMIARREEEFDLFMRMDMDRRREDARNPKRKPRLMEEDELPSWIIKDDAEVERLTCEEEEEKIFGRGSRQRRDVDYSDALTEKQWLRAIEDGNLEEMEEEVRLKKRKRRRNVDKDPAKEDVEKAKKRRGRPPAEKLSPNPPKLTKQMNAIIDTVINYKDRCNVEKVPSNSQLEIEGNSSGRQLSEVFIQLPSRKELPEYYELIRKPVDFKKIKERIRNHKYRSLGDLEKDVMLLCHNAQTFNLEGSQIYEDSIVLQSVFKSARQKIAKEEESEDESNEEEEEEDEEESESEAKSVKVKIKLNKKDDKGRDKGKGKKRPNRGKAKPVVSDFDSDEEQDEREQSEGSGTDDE

[10] = Counterscreen for activators of the function of SWI/SNF related, matrix associated, actin dependent regulator of chromatin, subfamily a, member 2 (SMARCA2, BRM): Luminescence-based cell-based high throughput dose response assay to identify non-selective compounds using the VP16 reporter assay.; type: functional

Beta-galactosidase, sequence (Q8VNN2 whole entry): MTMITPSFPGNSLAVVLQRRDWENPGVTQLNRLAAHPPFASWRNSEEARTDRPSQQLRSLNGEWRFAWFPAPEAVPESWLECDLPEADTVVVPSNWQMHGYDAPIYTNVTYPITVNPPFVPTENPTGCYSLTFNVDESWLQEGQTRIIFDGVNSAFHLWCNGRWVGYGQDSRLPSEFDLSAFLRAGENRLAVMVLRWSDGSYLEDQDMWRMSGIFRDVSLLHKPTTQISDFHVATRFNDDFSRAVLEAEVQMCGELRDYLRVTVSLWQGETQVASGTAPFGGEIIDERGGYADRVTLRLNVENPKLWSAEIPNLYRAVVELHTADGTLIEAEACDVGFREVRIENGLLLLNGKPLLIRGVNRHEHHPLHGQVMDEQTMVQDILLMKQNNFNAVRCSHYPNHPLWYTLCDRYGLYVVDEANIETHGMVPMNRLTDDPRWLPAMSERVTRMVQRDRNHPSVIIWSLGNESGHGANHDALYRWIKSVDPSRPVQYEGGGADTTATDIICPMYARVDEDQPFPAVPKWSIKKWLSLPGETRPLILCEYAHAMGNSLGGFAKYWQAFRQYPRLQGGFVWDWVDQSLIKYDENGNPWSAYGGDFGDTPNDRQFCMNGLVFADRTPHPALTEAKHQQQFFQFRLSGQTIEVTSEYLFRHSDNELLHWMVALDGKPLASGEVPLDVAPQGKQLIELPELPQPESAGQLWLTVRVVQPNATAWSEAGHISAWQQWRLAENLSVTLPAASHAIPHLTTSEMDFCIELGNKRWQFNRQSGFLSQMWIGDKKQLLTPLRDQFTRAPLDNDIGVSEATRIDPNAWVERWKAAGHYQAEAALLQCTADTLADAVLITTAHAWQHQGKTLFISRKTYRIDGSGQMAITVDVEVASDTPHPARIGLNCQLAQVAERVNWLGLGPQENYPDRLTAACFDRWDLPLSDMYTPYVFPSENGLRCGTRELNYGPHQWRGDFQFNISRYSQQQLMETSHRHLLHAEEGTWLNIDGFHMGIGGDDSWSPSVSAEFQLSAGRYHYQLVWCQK

CCOC(=O)C1CCN(C(=O)c2cc3c(ccc4ccccc43)o2)CC1
IC50 (Beta-galactosidase): > 80 µM (inactive)

N#Cc1ccc(CSc2nnc(Nc3ccccc3)s2)cc1
IC50 [1]: 119 µM (inactive)
IC50 [2]: 83.3 µM (inactive)
IC50 [3]: 7.66 µM (active)

Cc1ccc2nc(SCC(=O)N3CCCCCC3)nc(=O)n2c1
EC50 (cells [4]): > 350 µM (not active)
EC50 (cells [5]): > 350 µM (not active)
IC50 [6]: 23.1 µM (inactive)
IC50 [7]: 30.7 µM (inactive)

CCN1CCN(c2ccc(S(=O)(=O)N3CCCCC3)cc2NC(=O)/C=C/c2ccc([N+](=O)[O-])cc2)CC1
AC50 [8]: 7.51 µM (active)
EC50 [9]: > 91.2 µM (inactive)
EC50 [10]: > 91.2 µM (inactive)
